Measurements from patent publication US20020137929A1, “1 - (3-heterocyclylphenyl) isothiourea, -isourea, -guanidine and -amidine herbicidal agents” (Intellectual Property Department, BASF Aktiengesellschaft, priority 1998, published 2002).

Key:
[1] = system: ABUTH (Velvetleaf); assay: Postemergence herbicidal evaluation; type: in vivo, Abutilon theophrasti; settings: postemergence
Outline: (§1)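 Each compound, dispersed in an acetone/water mix (50/50) carrying 0.5% TWEEN 20, is nozzle-sprayed at 40 psi on approximately two-week-old seedlings at about 0.0156–0.500 kg/ha. Plants are assessed 4–5 weeks afterward on a 0–9 scale relative to control; duplicate tests are averaged.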

[2] = system: AMBEL (Ragweed, Common); assay: Postemergence herbicidal evaluation; type: in vivo, Ambrosia artemisifolia; settings: postemergence
Outline: as §1

[3] = system: CHEAL (Lambsquarters, Common); assay: Postemergence herbicidal evaluation; type: in vivo, Chenopodium album; settings: postemergence
Outline: as §1

[4] = system: ECHCG (Barnyardgrass); assay: Postemergence herbicidal evaluation; type: in vivo, Echinochloa crus-galli; settings: postemergence
Outline: as §1

[5] = system: GLXMAW (Soybean, Williams); assay: Postemergence herbicidal evaluation; type: in vivo, Glycine max, (L.) Merr. cv Williams; settings: postemergence
Outline: as §1

[6] = system: ORYSAT (Rice, Tebonnet); assay: Postemergence herbicidal evaluation; type: in vivo, Oryza sativa, (L.) Tebonnet; settings: postemergence
Outline: as §1

[7] = system: ZEAMX (Corn, Field); assay: Postemergence herbicidal evaluation; type: in vivo, Zea mays; settings: postemergence
Outline: as §1

[8] = system: AMBEL (Ragweed, Common); assay: Preemergence herbicidal evaluation; type: in vivo, Ambrosia artemisifolia; settings: rated 4-5 weeks after treatment
Outline: (§2)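 Seeds were mixed with potting soil and planted on about one inch of soil, then sprayed with test compound in aqueous acetone at about 0.0156 to 0.500 kg per hectare. Plants grew under standard greenhouse care and were visually rated 0-9 against untreated controls 4-5 weeks post-treatment.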

[9] = system: CASOB (Sicklepod); assay: Preemergence herbicidal evaluation; type: in vivo, Cassia obtusifolia; settings: rated 4-5 weeks after treatment
Outline: as §2

[10] = system: CHEAL (Lambsquarters, Common); assay: Preemergence herbicidal evaluation; type: in vivo, Chenopodium album; settings: rated 4-5 weeks after treatment
Outline: as §2

[11] = system: GALAP (Galium); assay: Preemergence herbicidal evaluation; type: in vivo, Galium aparine; settings: rated 4-5 weeks after treatment
Outline: as §2

[12] = system: CYPSE (Flatsedge); assay: Preemergence weed control under flooded paddy conditions; type: in vivo, Cyperus serotinus; settings: rated 3-4 weeks after treatment
Outline: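 Visual injury scored 0-9 against control three to four weeks post-treatment, greenhouse-grown. Application: acetone/water (50/50) solutions dosed directly into flood water (1.5-3 cm over silt loam, planted top 0.5 cm), roughly 0.0313 to 0.500 kg/ha active ingredient.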

[13] = rate 0.0313 kg/ha, rating scale 0-9
[14] = rate 0.0625 kg/ha, rating scale 0-9
[15] = rate 0.1250 kg/ha, rating scale 0-9
[16] = rate 0.2500 kg/ha, rating scale 0-9

## Cn1c(C(F)(F)F)cc(=O)n(-c2cc(N=C3SCC(=O)N3Cc3cc(Cl)cc(Cl)c3)c(Cl)cc2F)c1=O [Compound 150, 3-{4-Chloro-5-{[3-(3,5-dichlorobenzyl)-4-oxo-2-thiazolidinylidene]amino}-2-fluorophenyl}-1-methyl-6-(trifluoromethyl)-2,4(1H,3H)-pyrimidinedione]
[1]; rate 0.0156 kg/ha
  Herbicidal rating ABUTH: 9.0
[1]; rate 0.0313 kg/ha
  Herbicidal rating ABUTH: 9.0
[1]; rate 0.0625 kg/ha
  Herbicidal rating ABUTH: 9.0
[2]; rate 0.0156 kg/ha
  Herbicidal rating AMBEL: 7.0
[2]; rate 0.0313 kg/ha
  Herbicidal rating AMBEL: 9.0
[2]; rate 0.0625 kg/ha
  Herbicidal rating AMBEL: 9.0
[3]; rate 0.0156 kg/ha
  Herbicidal rating CHEAL: 9.0
[3]; rate 0.0313 kg/ha
  Herbicidal rating CHEAL: 9.0
[3]; rate 0.0625 kg/ha
  Herbicidal rating CHEAL: 9.0
[4]; rate 0.0156 kg/ha
  Herbicidal rating ECHCG: 2.0
[4]; rate 0.0313 kg/ha
  Herbicidal rating ECHCG: 1.0
[4]; rate 0.0625 kg/ha
  Herbicidal rating ECHCG: 2.0
[5]; rate 0.0156 kg/ha
  Herbicidal rating GLXMAW: 5.0
[5]; rate 0.0313 kg/ha
  Herbicidal rating GLXMAW: 5.5
[5]; rate 0.0625 kg/ha
  Herbicidal rating GLXMAW: 6.0
[6]; rate 0.0156 kg/ha
  Herbicidal rating ORYSAT: 2.0
[6]; rate 0.0313 kg/ha
  Herbicidal rating ORYSAT: 2.5
[6]; rate 0.0625 kg/ha
  Herbicidal rating ORYSAT: 3.0
[7]; rate 0.0156 kg/ha
  Herbicidal rating ZEAMX: 4.0
[7]; rate 0.0313 kg/ha
  Herbicidal rating ZEAMX: 4.0
[7]; rate 0.0625 kg/ha
  Herbicidal rating ZEAMX: 4.0
[8]; [13]
  Preemergence herbicidal rating AMBEL: 0.0
[8]; [14]
  Preemergence herbicidal rating AMBEL: 0.0
[8]; [15]
  Preemergence herbicidal rating AMBEL: 3.0
[8]; [16]
  Preemergence herbicidal rating AMBEL: 7.0
[9]; [13]
  Preemergence herbicidal rating CASOB: 0.0
[9]; [14]
  Preemergence herbicidal rating CASOB: 2.0
[9]; [15]
  Preemergence herbicidal rating CASOB: 1.0
[9]; [16]
  Preemergence herbicidal rating CASOB: 2.0
[10]; [13]
  Preemergence herbicidal rating CHEAL: 9.0
[10]; [14]
  Preemergence herbicidal rating CHEAL: 9.0
[10]; [15]
  Preemergence herbicidal rating CHEAL: 9.0
[10]; [16]
  Preemergence herbicidal rating CHEAL: 9.0
[11]; [13]
  Preemergence herbicidal rating GALAP: 0.0
[11]; [14]
  Preemergence herbicidal rating GALAP: 0.0
[11]; [15]
  Preemergence herbicidal rating GALAP: 0.0
[11]; [16]
  Preemergence herbicidal rating GALAP: 2.0
[12]; 0.1250 kg/ha
  herbicidal effect rating, CYPSE: 9.0
[12]; 0.2500 kg/ha
  herbicidal effect rating, CYPSE: 9.0

## CC(C)COC(=O)CN1C(=O)CSC1=Nc1cc(-n2c(=O)cc(C(F)(F)F)n(C)c2=O)c(F)cc1Cl [Compound 121, Isobutyl 2-{{2-chloro-5-[3,6-dihydro-3-methyl-2,6-dioxo-4-(trifluoromethyl)-1(2H)-pyrimidinyl]-4-fluorophenyl}imino}-4-oxo-3-thiazolidineacetate]
[1]; rate 0.0156 kg/ha
  Herbicidal rating ABUTH: 9.0
[1]; rate 0.0313 kg/ha
  Herbicidal rating ABUTH: 9.0
[1]; rate 0.0625 kg/ha
  Herbicidal rating ABUTH: 9.0
[2]; rate 0.0156 kg/ha
  Herbicidal rating AMBEL: 9.0
[2]; rate 0.0313 kg/ha
  Herbicidal rating AMBEL: 9.0
[2]; rate 0.0625 kg/ha
  Herbicidal rating AMBEL: 9.0
[3]; rate 0.0156 kg/ha
  Herbicidal rating CHEAL: 4.0
[3]; rate 0.0313 kg/ha
  Herbicidal rating CHEAL: 7.0
[3]; rate 0.0625 kg/ha
  Herbicidal rating CHEAL: 9.0
[4]; rate 0.0156 kg/ha
  Herbicidal rating ECHCG: 0.0
[4]; rate 0.0313 kg/ha
  Herbicidal rating ECHCG: 0.0
[4]; rate 0.0625 kg/ha
  Herbicidal rating ECHCG: 0.0
[5]; rate 0.0156 kg/ha
  Herbicidal rating GLXMAW: 6.0
[5]; rate 0.0313 kg/ha
  Herbicidal rating GLXMAW: 8.0
[5]; rate 0.0625 kg/ha
  Herbicidal rating GLXMAW: 8.0
[6]; rate 0.0156 kg/ha
  Herbicidal rating ORYSAT: 2.0
[6]; rate 0.0313 kg/ha
  Herbicidal rating ORYSAT: 2.5
[6]; rate 0.0625 kg/ha
  Herbicidal rating ORYSAT: 3.0
[7]; rate 0.0156 kg/ha
  Herbicidal rating ZEAMX: 5.0
[7]; rate 0.0313 kg/ha
  Herbicidal rating ZEAMX: 5.0
[7]; rate 0.0625 kg/ha
  Herbicidal rating ZEAMX: 6.0
[8]; rate 0.0156 kg/ha
  Preemergence herbicidal rating AMBEL: 0.0
[8]; rate 0.0313 kg/ha
  Preemergence herbicidal rating AMBEL: 2.0
[8]; rate 0.0625 kg/ha
  Preemergence herbicidal rating AMBEL: 3.0
[8]; rate 0.1250 kg/ha
  Preemergence herbicidal rating AMBEL: 4.0
[8]; rate 0.2500 kg/ha
  Preemergence herbicidal rating AMBEL: 8.0
[9]; rate 0.0156 kg/ha
  Preemergence herbicidal rating CASOB: 0.0
[9]; rate 0.0313 kg/ha
  Preemergence herbicidal rating CASOB: 0.0
[9]; rate 0.0625 kg/ha
  Preemergence herbicidal rating CASOB: 0.0
[9]; rate 0.1250 kg/ha
  Preemergence herbicidal rating CASOB: 9.0
[9]; rate 0.2500 kg/ha
  Preemergence herbicidal rating CASOB: 9.0
[10]; rate 0.0156 kg/ha
  Preemergence herbicidal rating CHEAL: 9.0
[10]; rate 0.0313 kg/ha
  Preemergence herbicidal rating CHEAL: 9.0
[10]; rate 0.0625 kg/ha
  Preemergence herbicidal rating CHEAL: 9.0
[10]; rate 0.1250 kg/ha
  Preemergence herbicidal rating CHEAL: 9.0
[10]; rate 0.2500 kg/ha
  Preemergence herbicidal rating CHEAL: 9.0
[11]; rate 0.0156 kg/ha
  Preemergence herbicidal rating GALAP: 0.0
[11]; rate 0.0313 kg/ha
  Preemergence herbicidal rating GALAP: 0.0
[11]; rate 0.0625 kg/ha
  Preemergence herbicidal rating GALAP: 0.0
[11]; rate 0.1250 kg/ha
  Preemergence herbicidal rating GALAP: 5.0
[11]; rate 0.2500 kg/ha
  Preemergence herbicidal rating GALAP: 9.0
[12]; 0.0313 kg/ha
  herbicidal effect rating, CYPSE: 2.0
[12]; 0.1250 kg/ha
  herbicidal effect rating, CYPSE: 5.0
[12]; 0.2500 kg/ha
  herbicidal effect rating, CYPSE: 5.0
